Data reported in ChEMBL document CHEMBL5338731, “Development of Neuropeptide Hemokinin-1 Analogues with Antimicrobial and Wound-Healing Activity” (J Med Chem, 2023).
pKd: −log10 of the molar value. The source made the active and inactive calls. No cut-off for these calls is given here.

Experiments:
Staphylococcus aureus [1] = experiment: Antimicrobial activity against Staphylococcus aureus ATCC 25923 assessed as inhibition of bacterial growth incubated for 18 hrs by serial dilution method; format: functional
NIH3T3 [2] = experiment: Induction of cell proliferation in mouse NIH3T3 cells assessed as increase in cell viability at 0.1 to 1000 nM incubated for 48 hrs by MTT assay; format: functional, cell-based; details: dose 0.1-1000 nM
Mus musculus [3] = species on record: Mus musculus; experiment: Wound healing activity in Kunming mouse full-thickness excisional wound model assessed as increase in wound closure at 1 10^-7M, TOP BID and measured upto 8 days by image analysis; format: functional, organism-based; details: time <= 8.0 day
Cell membrane [4] = experiment: Induction of cell membrane disruption in Escherichia coli ATCC 25922 assessed as separation between outer membrane and cytoplasmic membrane at 2 times MIC incubated for 2 hrs by TEM analysis; format: subcellular
Cell membrane [5] = experiment: Induction of cell membrane disruption in Escherichia coli ATCC 25922 assessed as coagulation of cytoplasmic elements at 2 times MIC incubated for 2 hrs by TEM analysis; format: subcellular
Cell membrane [6] = experiment: Induction of cell membrane disruption in Escherichia coli ATCC 25922 assessed as membrane blebbing at 2 times MIC incubated for 2 hrs by SEM analysis; format: subcellular
Mus musculus [7] = species on record: Mus musculus; experiment: Wound healing activity in STZ-induced Kunming mouse diabetic wound model assessed as increase in wound repair at 1 10^-7M, TOP BID and measured upto 8 days by image analysis; format: functional, organism-based; details: time <= 8.0 day
Cell membrane [8] = experiment: Induction of cell membrane disruption in Escherichia coli ATCC 25922 assessed as distinct wrinkling in cell morphology at 2 times MIC incubated for 2 hrs by SEM analysis; format: subcellular
HEK293 [9] = experiment: Induction of cell proliferation in human HEK293 cells assessed as increase in cell viability at 0.1 to 1000 nM incubated for 48 hrs by MTT assay; format: functional, cell-based; details: dose 0.1-1000 nM
HEK293 [10] = experiment: Induction of cell proliferation in human HEK293 cells expressing NK1R assessed as increase in cell viability at 0.1 to 1000 nM incubated for 48 hrs by MTT assay; format: functional, cell-based; details: dose 0.1-1000 nM
Escherichia coli [11] = experiment: Bactericidal activity against Escherichia coli ATCC 25922 assessed as reduction in colony forming unit at 4 times MIC and measured after 60 mins by time-kill kinetics assay; format: functional, organism-based
Lipopolysaccharide (LPS) = experiment: Binding affinity to Escherichia coli O111:B4 LPS assessed as dissociation constant by ITC assay
Staphylococcus aureus [12] = experiment: Bactericidal activity against Staphylococcus aureus ATCC 25923 assessed as reduction in colony forming unit at 1 to 4 times MIC and measured after 120 mins by time-kill kinetics assay; format: functional, organism-based
Pseudomonas aeruginosa [13] = experiment: Antimicrobial activity against Pseudomonas aeruginosa ATCC 27853 assessed as inhibition of bacterial growth incubated for 18 hrs by serial dilution method; format: functional
Cell membrane [14] = experiment: Induction of cell membrane disruption in Escherichia coli ATCC 25922 assessed as PI uptake at 2 times MIC incubated for 1 hrs by PI staining based confocal laser scanning microscopy; format: subcellular
RAW264.7 [15] = experiment: Anti-inflammatory activity against LPS-stimulated mouse RAW264.7 cells assessed as reduction in TNF-alpha mRNA expression level at 1 to 16 uM incubated for 4 hrs by RT-qPCR analysis; format: functional, cell-based; details: dose 1-16 µM
Cell membrane [16] = experiment: Induction of cell membrane disruption in Staphylococcus aureus ATCC 25923 assessed as coagulation of cytoplasmic elements at 2 times MIC incubated for 2 hrs by TEM analysis; format: subcellular
Cell membrane [17] = experiment: Induction of cell membrane disruption in Staphylococcus aureus ATCC 25923 assessed as sparse cytoplasmic distribution at 2 times MIC incubated for 2 hrs by TEM analysis; format: subcellular
Cell membrane [18] = experiment: Induction of outer cell membrane permeability in Escherichia coli ATCC 25922 assessed as increase fluoresence intensity at 1 to 8 times of MIC and measured every mins for 15 mins by NPN uptake assay; format: subcellular
Cell membrane [19] = experiment: Induction of inner cell membrane permeabilization in Escherichia coli ML-35 assessed as increase in absorbance at 1 to 8 times of MIC and measured every 5mins for 90 mins by ONPG beta-galactosidase based assay; format: subcellular
Cell membrane [20] = experiment: Induction of cell membrane disruption in Staphylococcus aureus ATCC 25923 assessed as separation between […] at 2 times MIC incubated for 2 hrs by TEM analysis; format: subcellular
Escherichia coli [21] = experiment: Bactericidal activity against Escherichia coli ATCC 25922 assessed as reduction in colony forming unit at 1 times MIC and measured after 120 mins by time-kill kinetics assay; format: functional, organism-based
Escherichia coli [22] = experiment: Antimicrobial activity against Escherichia coli ML-35 assessed as inhibition of bacterial growth incubated for 18 hrs by serial dilution method; format: functional
Pseudomonas aeruginosa [23] = experiment: Antimicrobial activity against Pseudomonas aeruginosa PAO1 assessed as inhibition of bacterial growth incubated for 18 hrs by serial dilution method; format: functional
Cell membrane [24] = experiment: Induction of cell membrane disruption in Staphylococcus aureus ATCC 25923 assessed as membrane blebbing at 2 times MIC incubated for 2 hrs by SEM analysis; format: subcellular
RAW264.7 [25] = experiment: Anti-inflammatory activity against LPS-stimulated mouse RAW264.7 cells assessed as reduction in IL-6 mRNA expression level at 1 to 16 uM incubated for 4 hrs by RT-qPCR analysis; format: functional, cell-based; details: dose 1-16 µM
Mus musculus [26] = species on record: Mus musculus; experiment: Antimicrobial activity in Staphylococcus aureus ATCC 25923 infected Kunming mouse excisional wound model assessed as decrease in bacterial growth at 1 10^-4M, TOP BID and measured upto 8 days by image analysis; format: functional, organism-based; details: time <= 8.0 day
Mus musculus [27] = species on record: Mus musculus; experiment: Wound healing activity in Kunming mouse full-thickness excisional wound model with splints assessed as increase in wound healing rate at 1 10^-7M, TOP BID and measured upto 8 days by image analysis; format: functional, organism-based; details: time <= 8.0 day
Cell membrane [28] = experiment: Induction of cell membrane disruption in Staphylococcus aureus ATCC 25923 assessed as distinct wrinkling in cell morphology at 2 times MIC incubated for 2 hrs by SEM analysis; format: subcellular
Cell membrane [29] = experiment: Induction of cell membrane disruption in Staphylococcus aureus ATCC 25923 assessed as PI uptake at 2 times MIC incubated for 1 hrs by PI staining based confocal laser scanning microscopy; format: subcellular
RAW264.7 [30] = experiment: Anti-inflammatory activity against LPS-stimulated mouse RAW264.7 cells assessed as reduction in IL-1beta mRNA expression level at 1 to 16 uM incubated for 4 hrs by RT-qPCR analysis; format: functional, cell-based; details: dose 1-16 µM
Mus musculus [31] = species on record: Mus musculus; experiment: Wound healing activity in Staphylococcus aureus ATCC 25923 infected Kunming mouse excisional wound model assessed as increase in wound repair at 1 10^-4M, TOP BID and measured upto 8 days by image analysis; format: functional, organism-based; details: time <= 8.0 day
Escherichia coli [32] = experiment: Antimicrobial activity against Escherichia coli ATCC 25922 assessed as inhibition of bacterial growth incubated for 18 hrs by serial dilution method; format: functional
Mus musculus [33] = species on record: Mus musculus; experiment: Wound healing activity in Kunming mouse full-thickness excisional wound model assessed as increase in wound closure at 0.1 to 10 uM, TOP BID and measured upto 8 days by image analysis; format: functional, organism-based; details: dose 0.1-10 µM, time <= 8.0 day
Staphylococcus aureus [34] = experiment: Antimicrobial activity against Staphylococcus aureus ATCC 29213 assessed as inhibition of bacterial growth incubated for 18 hrs by serial dilution method; format: functional
[35] = Cytotoxicity against mouse RAW264.7 cells assessed as cell survival rate at 16 uM incubated for 24 hrs by MTT assay; format: toxicity, cell-based; details: read-out: Survival
Escherichia coli [36] = experiment: Bactericidal activity against Escherichia coli ATCC 25922 assessed as reduction in colony forming unit at 2 times MIC and measured after 90 mins by time-kill kinetics assay; format: functional, organism-based
NIH3T3 [37] = experiment: Induction of cell migration in mouse NIH3T3 cells assessed as […] at 0.1 to 1000 nM incubated for 48 hrs by phase-contrast microscopy based scratch wound healing assay; format: functional; details: dose 0.1-1000 nM
Cell membrane [38] = experiment: Induction of cell membrane disruption in Escherichia coli ATCC 25922 assessed as sparse cytoplasmic distribution at 2 times MIC incubated for 2 hrs by TEM analysis; format: subcellular
[39] = Hemolytic activity in mouse erythrocytes assessed as haemoglobin release at 400 uM incubated for 1 hrs by microplate reader method; format: toxicity, cell-based, Erythrocyte; details: read-out: Activity
RAW264.7 [40] = experiment: Anti-inflammatory activity in LPS-stimulated mouse RAW264.7 cells assessed as inhibition of NO production at 16 uM incubated for 24 hrs by Griess reagent based assay; format: functional, cell-based
Bacillus subtilis = experiment: Antimicrobial activity against Bacillus subtilis ATCC 23857 assessed as inhibition of bacterial growth incubated for 18 hrs by serial dilution method; format: functional
Staphylococcus aureus [41] = experiment: Bactericidal activity against Staphylococcus aureus ATCC 25923 assessed as reduction in colony forming unit at 2 times MIC and measured after 120 mins by time-kill kinetics assay; format: functional, organism-based
RAW264.7 [42] = experiment: Cytotoxicity against mouse RAW264.7 cells assessed as reduction in cell viability at 1 to 16 uM incubated for 24 hrs by MTT assay; format: toxicity, cell-based; details: raw264.7, 24 h, dose 1-16 µM

For H-LKKWLKKWTLKASQFFGLM-NH2, the MIC (Staphylococcus aureus [1]) was 2 µM, the Activity (NIH3T3 [2]) was “Active” and the Activity (Mus musculus [3]) was “Active”. The Activity (Cell membrane [4]) was “Active”, the Activity (Cell membrane [5]) was “Active” and the Activity (Cell membrane [6]) was “Active”. For the same substance, the Activity (Mus musculus [7]) was “Active”, the Activity (Cell membrane [8]) was “Active” and the Activity (HEK293 [9]) was “inactive”. The Activity (HEK293 [10]) was “Active”, the Activity (Escherichia coli [11]) was “Active” and the pKd (Lipopolysaccharide (LPS)) was 4.87. For the same substance, the Activity (Staphylococcus aureus [12]) was “Active”, the MIC (Pseudomonas aeruginosa [13]) was 2 µM and the Activity (Cell membrane [14]) was “Active”. For the same substance, the Activity (RAW264.7 [15]) was “Dose-Dependent Effect”, the Activity (Cell membrane [16]) was “Active” and the Activity (Cell membrane [17]) was “Active”. For the same substance, the Activity (Cell membrane [18]) was “Dose-Dependent Effect”, the Activity (Cell membrane [19]) was “Active” and the Activity (Cell membrane [20]) was “Active”. The Activity (Escherichia coli [21]) was “Active”, the MIC (Escherichia coli [22]) was 2 µM and the MIC (Pseudomonas aeruginosa [23]) was 2 µM. For the same substance, the Activity (Cell membrane [24]) was “Active”, the Activity (RAW264.7 [25]) was “Dose-Dependent Effect” and the Activity (Mus musculus [26]) was “Active”. The Activity (Mus musculus [27]) was “Active”, the Activity (Cell membrane [28]) was “Active” and the Activity (Cell membrane [29]) was “Active”. The Activity (RAW264.7 [30]) was “Dose-Dependent Effect”, the Activity (Mus musculus [31]) was “inactive” and the MIC (Escherichia coli [32]) was 2 µM. The Activity (Mus musculus [33]) was “inactive”, the MIC (Staphylococcus aureus [34]) was 4 µM and the viability at 24 h, 16 µM [35] was over 90%. For the same substance, the Activity (Escherichia coli [36]) was “Active”, the Activity (NIH3T3 [37]) was “Active” and the Activity (Cell membrane [38]) was “Active”. For the same substance, the hemolysis at 1 h, 400 µM [39] was 19.5%, the inhibition (RAW264.7 [40]) was “Active” and the MIC (Bacillus subtilis) was 2 µM. For the same substance, the Activity (Staphylococcus aureus [41]) was “Active”.
In the case of H-LKKWLKKWTPKASQFFGLM-NH2, the MIC (Staphylococcus aureus [1]) was 32 µM, the Activity (NIH3T3 [2]) was “Active” and the Activity (Mus musculus [3]) was “Active”. The Activity (HEK293 [9]) was “inactive”, the Activity (HEK293 [10]) was “Active” and the pKd (Lipopolysaccharide (LPS)) was 3.51. For the same substance, the MIC (Pseudomonas aeruginosa [13]) was 2 µM, the Activity (RAW264.7 [15]) was “Dose-Dependent Effect” and the MIC (Escherichia coli [22]) was 2 µM. The MIC (Pseudomonas aeruginosa [23]) was 4 µM, the Activity (RAW264.7 [25]) was “Dose-Dependent Effect” and the Activity (Mus musculus [27]) was “Active”. The Activity (RAW264.7 [30]) was “Dose-Dependent Effect”, the MIC (Escherichia coli [32]) was 2 µM and the MIC (Staphylococcus aureus [34]) was 32 µM. The viability at 24 h, 16 µM [35] was over 90%, the Activity (NIH3T3 [37]) was “Active” and the hemolysis at 1 h, 400 µM [39] was 2.94%. For the same substance, the inhibition (RAW264.7 [40]) was “Active” and the MIC (Bacillus subtilis) was 2 µM.
With H-LKKWTGKASQFFGLM-NH2 the Activity (RAW264.7 [42]) was “Non-Toxic”, the MIC (Staphylococcus aureus [1]) was over 128 µM and the Activity (Mus musculus [3]) was “Active”. It also gave an MIC (Pseudomonas aeruginosa [13]) of 128 µM, an MIC (Escherichia coli [22]) of 64 µM and an MIC (Pseudomonas aeruginosa [23]) of 128 µM. It also gave an MIC (Escherichia coli [32]) of 64 µM, an MIC (Staphylococcus aureus [34]) of over 128 µM and a hemolysis at 1 h, 400 µM [39] of 1.01%. For the same substance, the inhibition (RAW264.7 [40]) was “inactive” and the MIC (Bacillus subtilis) was 64 µM.
In the case of H-LKKWTLKASQFFGLM-NH2, the MIC (Staphylococcus aureus [1]) was over 128 µM, the Activity (Mus musculus [3]) was “Active” and the MIC (Pseudomonas aeruginosa [13]) was 64 µM. It also gave an MIC (Escherichia coli [22]) of 16 µM, an MIC (Pseudomonas aeruginosa [23]) of 64 µM and an MIC (Escherichia coli [32]) of 16 µM. For the same substance, the MIC (Staphylococcus aureus [34]) was 128 µM, the viability at 24 h, 16 µM [35] was over 90% and the hemolysis at 1 h, 400 µM [39] was 11.2%. The inhibition (RAW264.7 [40]) was “Active” and the MIC (Bacillus subtilis) was 16 µM.
